Reference: publication PMC6704710, “Preclinical evaluation of 3D185, a novel potent inhibitor of FGFR1/2/3 and CSF-1R, in FGFR-dependent and macrophage-dominant cancer models” (Journal of Experimental & Clinical Cancer Research : CR, 2019)

How the values were obtained:
Test in all cases: Eurofins kinase panel
Format in all cases: biochemical
Details in all cases: read-out: Inhibition rate (%)
[1] = biological target: T1, MELK(h) (Homo sapiens, UniProt Q14680)
T1 construct: purchased Eurofins (KinaseProfiler)
T1 sequence (Q14680 whole entry): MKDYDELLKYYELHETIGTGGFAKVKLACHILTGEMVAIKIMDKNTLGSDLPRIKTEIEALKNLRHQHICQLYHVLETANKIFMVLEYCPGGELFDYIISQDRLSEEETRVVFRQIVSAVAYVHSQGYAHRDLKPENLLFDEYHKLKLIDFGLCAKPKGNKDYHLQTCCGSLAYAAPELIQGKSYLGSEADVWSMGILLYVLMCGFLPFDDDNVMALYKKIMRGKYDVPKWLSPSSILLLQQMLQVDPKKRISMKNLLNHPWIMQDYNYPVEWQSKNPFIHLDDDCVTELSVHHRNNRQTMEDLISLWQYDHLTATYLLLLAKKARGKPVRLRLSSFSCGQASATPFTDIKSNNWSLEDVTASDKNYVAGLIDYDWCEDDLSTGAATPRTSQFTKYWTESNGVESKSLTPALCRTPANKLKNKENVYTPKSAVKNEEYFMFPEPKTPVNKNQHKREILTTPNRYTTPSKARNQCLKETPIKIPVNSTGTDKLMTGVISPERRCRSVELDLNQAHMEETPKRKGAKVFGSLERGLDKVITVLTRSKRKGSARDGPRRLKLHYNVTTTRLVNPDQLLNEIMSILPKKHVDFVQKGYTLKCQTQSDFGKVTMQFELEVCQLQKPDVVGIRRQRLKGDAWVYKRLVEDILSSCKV

[2] = biological target: T2, PDGFRα(h) (Homo sapiens, UniProt P16234)
T2 construct: purchased Eurofins (KinaseProfiler)
T2 sequence (P16234 24-1089): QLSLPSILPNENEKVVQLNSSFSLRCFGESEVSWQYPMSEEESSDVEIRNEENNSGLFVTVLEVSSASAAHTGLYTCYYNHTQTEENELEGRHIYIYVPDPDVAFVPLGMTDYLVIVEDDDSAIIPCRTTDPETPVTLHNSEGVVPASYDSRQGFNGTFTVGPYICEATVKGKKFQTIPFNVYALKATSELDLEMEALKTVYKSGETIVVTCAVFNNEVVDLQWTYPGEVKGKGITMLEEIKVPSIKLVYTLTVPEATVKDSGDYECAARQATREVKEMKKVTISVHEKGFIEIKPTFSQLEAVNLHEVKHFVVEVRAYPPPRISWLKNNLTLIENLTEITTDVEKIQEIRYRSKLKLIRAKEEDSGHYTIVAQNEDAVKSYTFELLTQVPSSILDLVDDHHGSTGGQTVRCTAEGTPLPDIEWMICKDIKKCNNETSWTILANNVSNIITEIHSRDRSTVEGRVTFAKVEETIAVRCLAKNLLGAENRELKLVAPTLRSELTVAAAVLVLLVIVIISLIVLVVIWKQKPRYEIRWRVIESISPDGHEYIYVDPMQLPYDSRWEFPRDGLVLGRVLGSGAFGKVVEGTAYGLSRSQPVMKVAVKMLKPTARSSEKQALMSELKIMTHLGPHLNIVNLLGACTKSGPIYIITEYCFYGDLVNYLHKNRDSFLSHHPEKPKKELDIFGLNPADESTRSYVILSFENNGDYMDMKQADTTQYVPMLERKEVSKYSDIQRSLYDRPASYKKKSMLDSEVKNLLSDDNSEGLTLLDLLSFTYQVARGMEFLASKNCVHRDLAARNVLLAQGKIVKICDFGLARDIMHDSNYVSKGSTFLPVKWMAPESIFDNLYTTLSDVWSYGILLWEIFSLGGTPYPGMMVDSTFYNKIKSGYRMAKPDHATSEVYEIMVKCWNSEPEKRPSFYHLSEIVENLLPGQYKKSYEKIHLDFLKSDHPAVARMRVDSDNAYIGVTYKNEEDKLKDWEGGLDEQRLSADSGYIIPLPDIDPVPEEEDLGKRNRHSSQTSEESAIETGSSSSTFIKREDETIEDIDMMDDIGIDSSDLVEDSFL

[3] = biological target: T3, MLK1(h) (Homo sapiens, UniProt P80192)
T3 construct: purchased Eurofins (KinaseProfiler)
T3 sequence (P80192 whole entry): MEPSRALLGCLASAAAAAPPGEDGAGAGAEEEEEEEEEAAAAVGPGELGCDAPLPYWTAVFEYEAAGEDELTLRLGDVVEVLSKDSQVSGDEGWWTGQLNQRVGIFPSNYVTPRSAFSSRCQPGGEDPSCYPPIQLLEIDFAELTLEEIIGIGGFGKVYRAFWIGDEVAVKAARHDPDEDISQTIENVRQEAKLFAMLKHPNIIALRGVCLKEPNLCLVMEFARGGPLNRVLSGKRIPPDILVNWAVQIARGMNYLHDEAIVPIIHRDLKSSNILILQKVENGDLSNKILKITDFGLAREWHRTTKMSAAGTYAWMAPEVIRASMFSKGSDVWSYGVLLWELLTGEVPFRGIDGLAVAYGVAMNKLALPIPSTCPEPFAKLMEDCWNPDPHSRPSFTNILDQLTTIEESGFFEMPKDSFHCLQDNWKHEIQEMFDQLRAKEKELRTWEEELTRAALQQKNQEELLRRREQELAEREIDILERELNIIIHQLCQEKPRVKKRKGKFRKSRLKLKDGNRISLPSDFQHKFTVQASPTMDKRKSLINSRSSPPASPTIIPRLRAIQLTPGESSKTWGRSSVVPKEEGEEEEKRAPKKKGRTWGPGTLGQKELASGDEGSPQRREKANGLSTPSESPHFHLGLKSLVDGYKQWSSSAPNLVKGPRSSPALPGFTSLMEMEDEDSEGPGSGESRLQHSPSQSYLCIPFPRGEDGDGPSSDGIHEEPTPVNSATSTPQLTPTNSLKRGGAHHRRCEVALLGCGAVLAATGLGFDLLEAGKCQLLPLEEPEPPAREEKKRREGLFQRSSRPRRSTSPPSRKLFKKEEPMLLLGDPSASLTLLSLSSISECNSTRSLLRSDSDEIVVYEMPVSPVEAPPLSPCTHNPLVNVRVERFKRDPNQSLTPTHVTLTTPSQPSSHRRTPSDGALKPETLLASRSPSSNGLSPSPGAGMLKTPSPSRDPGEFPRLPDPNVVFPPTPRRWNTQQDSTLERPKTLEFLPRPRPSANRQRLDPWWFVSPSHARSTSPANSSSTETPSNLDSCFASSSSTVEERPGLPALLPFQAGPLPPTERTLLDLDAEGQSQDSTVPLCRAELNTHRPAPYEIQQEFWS

[4] = biological target: T4, Fyn(h) (Homo sapiens, UniProt P06241)
T4 construct: purchased Eurofins (KinaseProfiler)

[5] = biological target: T5, Fms(Y969C)(h) (Homo sapiens, UniProt P07333, Y969C)
T5 construct: purchased Eurofins (KinaseProfiler)
T5 sequence (P07333 20-972 Y969C): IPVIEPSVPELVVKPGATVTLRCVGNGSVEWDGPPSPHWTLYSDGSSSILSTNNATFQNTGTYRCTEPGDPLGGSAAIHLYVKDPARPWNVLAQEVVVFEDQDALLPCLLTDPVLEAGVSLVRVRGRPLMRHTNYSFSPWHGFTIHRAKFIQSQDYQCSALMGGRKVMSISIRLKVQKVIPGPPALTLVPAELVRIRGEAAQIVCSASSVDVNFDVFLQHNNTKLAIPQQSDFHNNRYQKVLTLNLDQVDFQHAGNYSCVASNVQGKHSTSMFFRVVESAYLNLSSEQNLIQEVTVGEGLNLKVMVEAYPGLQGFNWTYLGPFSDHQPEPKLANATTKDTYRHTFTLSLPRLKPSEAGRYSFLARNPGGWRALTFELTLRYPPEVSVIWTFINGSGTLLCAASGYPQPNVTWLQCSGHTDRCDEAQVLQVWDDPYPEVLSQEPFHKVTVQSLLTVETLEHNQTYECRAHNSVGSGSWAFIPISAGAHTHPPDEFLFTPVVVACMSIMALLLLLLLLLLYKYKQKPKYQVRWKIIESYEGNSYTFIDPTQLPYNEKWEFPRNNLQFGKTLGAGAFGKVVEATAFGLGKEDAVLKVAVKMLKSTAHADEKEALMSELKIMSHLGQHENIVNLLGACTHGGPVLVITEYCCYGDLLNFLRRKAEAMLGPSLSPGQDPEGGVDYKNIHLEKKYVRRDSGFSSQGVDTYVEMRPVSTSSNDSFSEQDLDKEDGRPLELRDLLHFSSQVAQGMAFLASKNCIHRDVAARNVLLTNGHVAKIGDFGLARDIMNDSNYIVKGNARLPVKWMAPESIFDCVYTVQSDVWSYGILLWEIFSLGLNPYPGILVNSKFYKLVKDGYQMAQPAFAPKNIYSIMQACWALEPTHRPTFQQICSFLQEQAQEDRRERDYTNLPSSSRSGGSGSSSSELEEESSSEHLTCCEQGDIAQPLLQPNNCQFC

[6] = biological target: T6, JAK3(h) (Homo sapiens, UniProt P52333)
T6 construct: purchased Eurofins (KinaseProfiler)
T6 sequence (P52333 1-1124): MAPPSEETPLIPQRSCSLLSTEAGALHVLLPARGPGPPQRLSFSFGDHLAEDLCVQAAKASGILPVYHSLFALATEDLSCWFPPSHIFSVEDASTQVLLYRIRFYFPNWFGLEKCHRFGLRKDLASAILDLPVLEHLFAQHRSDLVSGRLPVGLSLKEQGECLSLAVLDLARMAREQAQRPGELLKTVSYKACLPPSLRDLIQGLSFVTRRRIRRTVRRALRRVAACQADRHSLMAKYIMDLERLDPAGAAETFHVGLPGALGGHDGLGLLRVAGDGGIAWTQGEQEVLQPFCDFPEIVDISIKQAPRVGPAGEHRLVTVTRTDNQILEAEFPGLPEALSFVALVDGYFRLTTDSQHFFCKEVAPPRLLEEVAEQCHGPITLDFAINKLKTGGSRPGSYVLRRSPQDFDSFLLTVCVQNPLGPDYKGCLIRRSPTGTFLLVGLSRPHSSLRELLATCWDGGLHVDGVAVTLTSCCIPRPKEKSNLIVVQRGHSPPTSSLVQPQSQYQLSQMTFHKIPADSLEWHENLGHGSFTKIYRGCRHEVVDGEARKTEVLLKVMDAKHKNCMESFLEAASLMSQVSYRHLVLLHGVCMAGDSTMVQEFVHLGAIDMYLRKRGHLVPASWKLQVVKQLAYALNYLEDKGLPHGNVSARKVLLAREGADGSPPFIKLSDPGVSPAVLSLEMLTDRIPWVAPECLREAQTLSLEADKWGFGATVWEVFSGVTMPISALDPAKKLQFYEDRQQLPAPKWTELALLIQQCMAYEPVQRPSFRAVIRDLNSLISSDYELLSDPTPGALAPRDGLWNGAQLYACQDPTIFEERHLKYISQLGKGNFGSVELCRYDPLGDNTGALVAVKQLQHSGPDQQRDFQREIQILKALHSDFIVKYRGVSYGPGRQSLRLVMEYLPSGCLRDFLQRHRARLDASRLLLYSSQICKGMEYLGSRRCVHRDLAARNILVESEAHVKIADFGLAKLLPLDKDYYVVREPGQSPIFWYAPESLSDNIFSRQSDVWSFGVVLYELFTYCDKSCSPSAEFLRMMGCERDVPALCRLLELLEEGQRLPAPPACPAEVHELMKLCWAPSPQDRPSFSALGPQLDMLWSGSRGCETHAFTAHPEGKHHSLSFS

[7] = biological target: T7, Syk(h) (Homo sapiens, UniProt P43405)
T7 construct: purchased Eurofins (KinaseProfiler)

[8] = biological target: T8, JNK2α2(h) (Homo sapiens, UniProt P45984)
T8 construct: purchased Eurofins (KinaseProfiler)
T8 sequence (P45984 whole entry): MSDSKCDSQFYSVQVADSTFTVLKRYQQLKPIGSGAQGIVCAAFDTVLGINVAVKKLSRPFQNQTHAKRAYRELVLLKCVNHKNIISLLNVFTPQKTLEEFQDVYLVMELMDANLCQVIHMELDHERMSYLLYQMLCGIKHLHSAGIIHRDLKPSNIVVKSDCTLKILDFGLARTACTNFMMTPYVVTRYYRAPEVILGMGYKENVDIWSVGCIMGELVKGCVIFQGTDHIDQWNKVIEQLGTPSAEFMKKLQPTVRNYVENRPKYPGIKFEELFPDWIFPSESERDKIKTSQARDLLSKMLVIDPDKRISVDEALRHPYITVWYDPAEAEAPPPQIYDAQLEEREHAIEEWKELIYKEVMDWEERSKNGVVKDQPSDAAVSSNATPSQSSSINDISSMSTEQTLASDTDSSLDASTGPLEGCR

[9] = biological target: T9, CK2(h) (Homo sapiens, UniProt P68400)
T9 construct: purchased Eurofins (KinaseProfiler)
T9 sequence (P68400 whole entry): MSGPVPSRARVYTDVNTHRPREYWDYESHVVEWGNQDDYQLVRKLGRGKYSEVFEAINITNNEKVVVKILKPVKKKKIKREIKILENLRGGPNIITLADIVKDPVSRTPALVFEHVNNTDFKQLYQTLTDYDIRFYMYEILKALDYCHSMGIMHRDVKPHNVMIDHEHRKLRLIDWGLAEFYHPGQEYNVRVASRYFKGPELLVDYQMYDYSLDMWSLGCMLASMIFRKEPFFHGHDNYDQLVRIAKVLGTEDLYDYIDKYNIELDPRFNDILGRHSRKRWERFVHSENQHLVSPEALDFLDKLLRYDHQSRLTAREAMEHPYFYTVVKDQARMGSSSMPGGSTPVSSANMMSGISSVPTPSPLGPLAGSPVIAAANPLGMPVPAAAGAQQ
T9 sequence (P67870 whole entry partner): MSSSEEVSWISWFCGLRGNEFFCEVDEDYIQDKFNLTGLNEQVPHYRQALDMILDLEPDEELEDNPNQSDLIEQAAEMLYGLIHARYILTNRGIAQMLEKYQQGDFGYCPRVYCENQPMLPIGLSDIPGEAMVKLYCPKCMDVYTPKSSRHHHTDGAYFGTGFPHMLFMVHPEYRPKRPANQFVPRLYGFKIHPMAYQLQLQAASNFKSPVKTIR

[10] = biological target: T10, PKG1α(h) (Homo sapiens, UniProt Q13976)
T10 construct: purchased Eurofins (KinaseProfiler)
T10 sequence (Q13976 1-671): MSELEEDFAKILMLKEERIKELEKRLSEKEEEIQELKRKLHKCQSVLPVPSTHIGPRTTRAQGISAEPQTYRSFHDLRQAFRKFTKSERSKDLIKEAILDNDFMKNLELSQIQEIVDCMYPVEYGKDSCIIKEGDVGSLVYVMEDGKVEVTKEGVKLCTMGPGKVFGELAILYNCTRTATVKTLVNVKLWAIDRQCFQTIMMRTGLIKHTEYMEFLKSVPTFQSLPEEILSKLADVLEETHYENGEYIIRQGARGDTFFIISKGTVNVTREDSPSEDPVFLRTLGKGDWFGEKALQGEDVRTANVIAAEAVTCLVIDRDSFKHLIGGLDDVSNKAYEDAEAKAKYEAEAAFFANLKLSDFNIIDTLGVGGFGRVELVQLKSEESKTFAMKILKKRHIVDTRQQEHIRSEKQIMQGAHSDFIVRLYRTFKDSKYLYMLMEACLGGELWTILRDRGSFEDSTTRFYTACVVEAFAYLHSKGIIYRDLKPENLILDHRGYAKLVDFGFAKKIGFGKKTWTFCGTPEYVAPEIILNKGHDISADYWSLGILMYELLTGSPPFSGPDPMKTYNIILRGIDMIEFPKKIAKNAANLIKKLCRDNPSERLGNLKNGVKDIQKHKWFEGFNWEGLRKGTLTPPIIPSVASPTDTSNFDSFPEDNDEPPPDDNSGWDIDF

COc1cc(OC)c(Cl)c(-c2ccc3c(NC(=O)c4ccc(N5CCNC(C)(C)C5)cc4)n[nH]c3n2)c1Cl [3D185]
inhibition at 0.01 µM ([1]; 10 nM): -1% | inhibition at 0.1 µM ([1]; 100 nM): 8% | inhibition at 1 µM ([1]; 1000 nM): 14% | inhibition at 0.01 µM ([2]; 10 nM): 9% | inhibition at 0.1 µM ([2]; 100 nM): 6% | inhibition at 1 µM ([2]; 1000 nM): 10% | inhibition at 0.01 µM ([3]; 10 nM): -9% | inhibition at 0.1 µM ([3]; 100 nM): -1% | inhibition at 1 µM ([3]; 1000 nM): 26% | inhibition at 0.01 µM ([4]; 10 nM): 8% | inhibition at 0.1 µM ([4]; 100 nM): 27% | inhibition at 1 µM ([4]; 1000 nM): 80% | inhibition at 0.01 µM ([5]; 10 nM): 34% | inhibition at 0.1 µM ([5]; 100 nM): 75% | inhibition at 1 µM ([5]; 1000 nM): 95% | inhibition at 0.01 µM ([6]; 10 nM): -11% | inhibition at 0.1 µM ([6]; 100 nM): 0% | inhibition at 1 µM ([6]; 1000 nM): 10% | inhibition at 0.01 µM ([7]; 10 nM): -3% | inhibition at 0.1 µM ([7]; 100 nM): -5% | inhibition at 1 µM ([7]; 1000 nM): 20% | inhibition at 0.01 µM ([8]; 10 nM): 3% | inhibition at 0.1 µM ([8]; 100 nM): 4% | inhibition at 1 µM ([8]; 1000 nM): 1% | inhibition at 0.01 µM ([9]; 10 nM): 2% | inhibition at 0.1 µM ([9]; 100 nM): 9% | inhibition at 1 µM ([9]; 1000 nM): 9% | inhibition at 0.01 µM ([10]; 10 nM): -1% | inhibition at 0.1 µM ([10]; 100 nM): -2% | inhibition at 1 µM ([10]; 1000 nM): 1%
